Data from ChEMBL document CHEMBL5724796, “Tm Shift (DSF) assay results for EUbOPEN Chemogenomics Library” (2024).
Residues, ends and D or L forms follow the SMILES beside them. *: point of attachment. Cbz = O=C(OCc1ccccc1)*; CH2F = FC*

Tests used:
[1] = molecular target: Fibroblast growth factor receptor 2 (Homo sapiens) (UniProt P21802); details: Compound concentration 20.0 uM
Description: Thermal Shift Assay. Domain: start/stop: T457-E768

Peregrin (Homo sapiens) = molecular target: T1, Peregrin (Homo sapiens) (UniProt P55201); details: Compound concentration 20.0 uM
T1 sequence (whole entry): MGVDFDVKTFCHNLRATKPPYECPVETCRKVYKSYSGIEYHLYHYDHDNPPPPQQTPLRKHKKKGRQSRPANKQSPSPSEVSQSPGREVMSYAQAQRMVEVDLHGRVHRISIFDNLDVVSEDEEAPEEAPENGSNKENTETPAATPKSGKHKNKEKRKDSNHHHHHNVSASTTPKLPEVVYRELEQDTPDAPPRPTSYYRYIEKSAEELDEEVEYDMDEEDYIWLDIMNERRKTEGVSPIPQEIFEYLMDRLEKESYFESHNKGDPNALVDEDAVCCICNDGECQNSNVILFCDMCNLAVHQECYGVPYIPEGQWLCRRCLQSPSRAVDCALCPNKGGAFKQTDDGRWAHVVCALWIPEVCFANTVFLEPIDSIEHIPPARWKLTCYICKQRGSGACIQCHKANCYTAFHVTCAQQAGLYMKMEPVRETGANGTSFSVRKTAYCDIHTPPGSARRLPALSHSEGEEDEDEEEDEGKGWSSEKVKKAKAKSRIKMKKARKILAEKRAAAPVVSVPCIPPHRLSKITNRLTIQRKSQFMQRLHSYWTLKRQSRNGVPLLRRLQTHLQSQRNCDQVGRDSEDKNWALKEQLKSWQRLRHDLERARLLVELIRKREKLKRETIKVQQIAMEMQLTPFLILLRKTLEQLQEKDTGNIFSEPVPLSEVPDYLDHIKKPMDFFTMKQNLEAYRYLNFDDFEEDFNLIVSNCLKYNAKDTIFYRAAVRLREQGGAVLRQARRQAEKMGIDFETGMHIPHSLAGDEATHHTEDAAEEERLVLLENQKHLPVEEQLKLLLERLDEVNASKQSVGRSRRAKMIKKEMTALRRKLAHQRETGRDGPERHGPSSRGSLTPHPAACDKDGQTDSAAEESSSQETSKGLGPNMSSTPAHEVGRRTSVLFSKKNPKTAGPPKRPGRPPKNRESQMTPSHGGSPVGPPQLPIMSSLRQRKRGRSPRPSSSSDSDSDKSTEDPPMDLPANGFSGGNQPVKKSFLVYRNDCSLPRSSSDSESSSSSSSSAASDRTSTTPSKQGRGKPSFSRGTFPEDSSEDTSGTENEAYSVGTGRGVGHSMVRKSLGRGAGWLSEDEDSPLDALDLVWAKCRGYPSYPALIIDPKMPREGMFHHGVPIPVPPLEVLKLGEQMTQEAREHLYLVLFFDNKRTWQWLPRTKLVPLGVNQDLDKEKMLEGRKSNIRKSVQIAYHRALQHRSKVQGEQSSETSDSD

Chain of Fibroblast growth factor receptor 2 (Homo sapiens) (P21802 22-821 limits assumed): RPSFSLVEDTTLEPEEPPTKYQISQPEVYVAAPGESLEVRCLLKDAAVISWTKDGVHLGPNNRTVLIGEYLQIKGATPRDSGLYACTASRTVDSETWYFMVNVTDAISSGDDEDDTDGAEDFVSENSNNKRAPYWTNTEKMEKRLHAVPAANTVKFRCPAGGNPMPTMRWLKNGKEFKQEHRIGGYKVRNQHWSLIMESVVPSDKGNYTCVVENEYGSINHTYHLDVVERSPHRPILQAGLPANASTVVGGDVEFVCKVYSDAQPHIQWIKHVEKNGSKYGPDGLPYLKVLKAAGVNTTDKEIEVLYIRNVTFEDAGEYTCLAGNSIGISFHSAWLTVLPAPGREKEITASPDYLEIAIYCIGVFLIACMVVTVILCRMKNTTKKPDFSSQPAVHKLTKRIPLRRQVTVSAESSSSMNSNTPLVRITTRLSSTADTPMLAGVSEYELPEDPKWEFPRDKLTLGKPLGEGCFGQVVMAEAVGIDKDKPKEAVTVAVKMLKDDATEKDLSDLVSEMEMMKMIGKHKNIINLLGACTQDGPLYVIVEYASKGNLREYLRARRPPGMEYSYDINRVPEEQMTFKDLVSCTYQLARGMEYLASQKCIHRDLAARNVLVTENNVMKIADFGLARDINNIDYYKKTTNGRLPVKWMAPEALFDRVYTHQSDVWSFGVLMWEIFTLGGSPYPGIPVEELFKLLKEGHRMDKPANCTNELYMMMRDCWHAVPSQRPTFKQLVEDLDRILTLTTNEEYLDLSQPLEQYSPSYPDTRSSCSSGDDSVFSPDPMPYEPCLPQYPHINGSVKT

Row | Structure (SMILES) | ΔTm [1] [°C] | ΔTm (Peregrin (Homo sapiens)) [°C]
1 | CC(C)[C@@H]1NC(=O)[C@H](Cc2ccc(O)cc2)NC(=O)[C@@H](CC(=O)O)NC(=O)S[C@@H](C(=O)O)NC(=O)[C@H]([C@H](C)O)NC(=O)[C@H](Cc2ccc(O)cc2)NC(=O)[C@H](Cc2c[nH]c3ccccc23)NC(=O)[C@H](CCCNC(=N)N)NC(=O)[C@H](Cc2c[nH]c3ccccc23)NC(=O)[C@H](C)NC(=O)[C@H](CO)NC(=O)[C@H](CCCNC(=N)N)NC(=O)[C@H]([C@H](C)O)NC(=O)[C@H](CC(N)=O)NC(=O)[C@H](Cc2ccc(O)cc2)NC1=O | 0.32 | 1.38
2 | N[C@@H](CCCCB(O)O)C(=O)O | 0.29 | 0.2
3 | C=CCc1cccc(CNc2nc3ccccc3n2CCC)c1O | 0.14 | 4.18
4 | Cc1nc(F)ccc1-c1cc(Cn2ccn(C)c2=N)cc(C(=O)NCc2ccc(Cl)c(Cl)c2)c1 | 0.16 | -1.3
5 | NC(=O)c1cc(F)cc2c1C(=O)N(C1CCN(C3CCC(F)(F)CC3)CC1)C2 | -0.03 | -0.15
6 | C[C@@H]1CCC[C@H](C)N1NC(=O)c1ccc(Cl)c(S(N)(=O)=O)c1 | -0.13 | 0.5
7 | Cc1ncc(Cl)cc1NCc1ccc(C(=O)N[C@@H](CC2CCCC2)C(=O)NC2CC2)s1 | 1.09 | -0.65
8 | Cc1nnn(C)c1-c1cnc2c3cc4cnn(C)c4cc3n([C@H](c3ccccc3)C3CCOCC3)c2c1 | -0.32 | -0.09
9 | O=C1C(P(=O)(O)O)CCCN1O (stereo unspecified) | 0.23 | -1.07
10 | Cc1n[nH]c(C)c1Cc1sc2c(c1C(=O)N1C[C@H](O)CO1)c(=O)n(C)c(=O)n2CC(C)C | 0.22 | 2.27
11 | CN(C)Cc1ccc(S(=O)(=O)n2ccc(/C=C/C(=O)NO)c2)cc1 | 0.36 | -0.83
12 | CS(=O)(=O)c1ncn2c(NCc3c(F)ccc4c3CCO4)ncc(-c3ccc(C4CC4)nc3)c12 | -0.76 | -0.81
13 | CC(C)Oc1ccc2c(=O)[nH]c3sccc3c2c1 | 0.02 | -0.93
14 | CN1C[C@@H]2[C@H](C1)[C@H]2CN(Cc1ccc(F)c(Cl)c1)C(=O)c1cn(C)cn1 | 0.05 | 1.67
15 | Cn1c(OC[C@H]2CC[C@H](C(F)(F)F)CC2)nn2c(C3CCOCC3)ncc2c1=O | -0.94 | 2.25
16 | CCC(CC)(NC(=O)C(C)C)C(=O)N[C@@H](CCCNC(=N)N)C(=O)NC1(C(=O)NC(c2ccc(F)cc2)c2ccc(F)cc2)CCCC1 | -3.44 | -0.95
17 | COc1cc(C(C)C)c2c(c1)S(=O)(=O)N(COc1cc(=O)n3cccc(OCCN4CCCCC4)c3n1)C2=O | 1.04 | -1.13
18 | CC(=O)N1CCc2c(c(N3CCCc4cc(-c5cnn(C)c5)c(C(F)F)cc43)nn2C2CCOCC2)C1 | 0.45 | -1.44
19 | N[C@@H](CC(=O)Nc1ccc(Oc2cc(F)c(F)cc2Br)cc1)C(=O)O | -0.01 | 0.59
20 | O=C(NCCc1cc(C(=O)NO)no1)c1ccc(Cl)c(Cl)c1 | 0.8 | -1.25
21 | COc1cc2c(NCC3CCN(C)CC3)cc(-c3ccc(C)o3)nc2cc1OCCCN1CCCC1 | 0.16 | -0.88
22 | NC(=S)c1cccc(-c2cn(C3CCN(S(=O)(=O)C(F)(F)F)CC3)c3cc(CNC(=O)C4CNC4)ccc23)c1 | 0.25 | 5.2
23 | COC[C@@H]1CCCN1S(=O)(=O)c1ccc2c(c1)C(=O)C(=O)N2 | 0.48 | -0.85
24 | CNCCN(C)Cc1cn[nH]c1-c1ccc(OC2CC(OCCC3CCOCC3)C2)cc1 (stereo unspecified) | 0.29 | -0.84
25 | Cc1ncccc1-c1cnc(NCc2c(F)ccc3c2CCO3)n2cnnc12 | -0.09 | -0.54
26 | Cc1ccc2[nH]c(-n3nc(C)c(Cc4ccccc4)c3O)nc2c1 | -0.11 | 0.31
27 | CC/C(=C(/CC)c1ccc(O)cc1)c1ccc(O)cc1 | -8.29 | -8.49

Row | Structure (SMILES) | ΔTm [1] [°C] | ΔTm (Peregrin (Homo sapiens)) [°C]
28 | NC(=O)C(CCCN=C(N)CCl)NC(=O)c1ccccc1 (stereo unspecified) | -0.58 | 1.58
29 | COC(=O)[C@@H]1CC2=CC(=O)CC[C@]2(C)[C@@]23O[C@@H]2C[C@@]2(C)[C@@H](CC[C@@]24CCC(=O)O4)[C@H]13 | 1.06 | -1.07
30 | CCn1c(=O)c(C)cn(Cc2nnc(-c3ccc(F)c(OC)c3F)s2)c1=O | 0.75 | -0.72
31 | CN(C)CCCCC(=O)Nc1ccc(NC(=S)NC(=O)c2ccc(C(C)(C)C)cc2)cc1 | -0.03 | -0.35
32 | CCCOc1ccc(CCc2nc3cc(-c4c(C)noc4C)ccc3n2CCN2CCOCC2)cc1 | -0.48 | -1.09
33 | CC(C)c1c(-c2ccccc2)[nH]c2c(C#N)cnn2c1=O | -0.06 | 1.31
34 | CCCOc1cc(OCCCCN(C)C)cc(Oc2cc3c(cc2NS(=O)(=O)c2ccc(OC)c(OC)c2)n(C)c(=O)n3C)c1 | 0.62 | 9.12
35 | CNCCCN1c2ccccc2CCc2ccccc21 | -0.25 | 1.05
36 | C=CCn1c(N[C@@H]2C[C@H](c3ccc(OCc4ccccc4)cc3)CN(C)C2)nc2cc[nH]c2c1=O | 0.37 | 3.96
37 | COc1cc(C)[nH]c(=O)c1CNC(=O)c1c(C)n([C@H](C)C2CCOCC2)c2ccccc12 | 0.42 | -1.84
38 | NC(=O)c1ccc(Oc2ccc(C(N)=O)cc2)cc1 | 0.24 | -2.11
39 | Oc1nc(-c2ccc(C(F)(F)F)cc2)nc2c1CSCC2 | -0.47 | 0.57
40 | Nc1cccc(Nc2ncc(-c3ccc(Cl)cc3)o2)c1 | 2.1 | 4.7
41 | O=C(NC(Cc1ccccc1)C(=O)NC(Cc1ccccc1)C(=O)CF)OCc1ccccc1 (stereo not drawn) (Cbz-Phe-Phe-CH2F; configuration not given here) | 0.39 | 1.77
42 | COc1ccc(CC[C@H]2CCC[C@@H](CCc3ccc(OC)cc3)N2C[C@@H](O)CO)cc1 | -0.53 | 0.69
43 | Nc1cc2c3c(c1)C(c1ccccc1)=N[C@@H](NC(=O)c1cccnc1)C(=O)N3CC2 | 0.08 | 0.71
44 | CC(C)c1cc(C(=O)N2Cc3ccc(CN4CCN(C)CC4)cc3C2)c(O)cc1O | 0.44 | -1.35
45 | C=Cc1cc(C(=O)Nc2ccc(C(=N)N)cc2)c(-c2ccc(C(=O)NCC3CC3)nc2C(=O)O)cc1OC | 0.02 | 2.91
46 | COc1cc(Nc2ncc(F)c(Nc3ccc4c(n3)N(COP(=O)(O)O)C(=O)C(C)(C)O4)n2)cc(OC)c1OC | 4.69 | -0.81
47 | CC(C)c1cnc(CSc2cnc(NC(=O)C3CCNCC3)s2)o1 | 0.73 | -1.67
48 | N#C[C@@H]1C[C@@H]2C[C@@H]2N1C(=O)[C@@H](N)C12CC3CC(CC(O)(C3)C1)C2 | 0.29 | -0.63
49 | Cc1ncsc1-c1ccc(CNC(=O)[C@@H]2C[C@@H](O)CN2C(=O)[C@@H](NC(=O)COCCOCCOCCNC(=O)C[C@@H]2N=C(c3ccc(Cl)cc3)c3c(sc(C)c3C)-n3c(C)nnc32)C(C)(C)C)cc1 | 0.61 | -1.64
50 | COc1ccc(Cc2nc(O)c3c(C)nc([C@@H](CCCc4ccccc4)[C@@H](C)O)n3n2)cc1OC | 0.51 | 0.21
51 | CC(C)c1c(-c2cnn(C(C)(C)C)c2)[nH]c2c(C#N)cnn2c1=O | 0.36 | 0.8
52 | O=C(NCCCCCCCCNC(=O)C(Cl)Cl)C(Cl)Cl | -0.34 | 0.99
53 | COCc1nc2cnc3cc(-c4c(C)noc4C)c(OC[C@H]4CCNC4)cc3c2n1[C@H](C)c1ccccc1 | 0.01 | 0.65
